Here are results for one compound from ChEMBL document CHEMBL5113482, “Discovery of fused benzimidazole-imidazole autophagic flux inhibitors for treatment of triple-negative breast cancer” (Eur J Med Chem, 2022).

In test [1] the test system is MDA-MB-468. Nature of the test: Cell cycle arrest in human MDA-MB-468 cells assessed as increase in accumulation at S-phase at 5 to 20 uM measured after 48 hrs by propidium iodide staining based flow cytometry. The class given is functional. The conditions noted are these: dose 5-20 µM. For orientation: A flow cytometer gives signals particle by particle.
The test system of test [2] is MDA-MB-231. Kind of test: Cell cycle arrest in human MDA-MB-231 cells assessed as increase in accumulation at S-phase at 5 to 20 uM measured after 48 hrs by propidium iodide staining based flow cytometry. The class given is functional. The conditions noted are these: dose 5-20 µM.
Test [3] concerns MDA-MB-468. Kind of test: Inhibition of autophagic flux in human MDA-MB-468 cells assessed as increase in nuclear p62 expression measured after 48 hrs by immunofluorescence analysis. The format is functional, cell-based. The conditions noted are these: dose 5-20 µM, DDE = dose-dependent effect.
Test [4] has as its system MDA-MB-231. Kind of test: Induction of mitochondrial membrane potential loss in human MDA-MB-231 cells at 20 uM measured after 48 hrs by JC-1 staining based assay relative to control. The format is functional.
The test system of test [5] is MDA-MB-231. Nature of the test: Inhibition of colony formation in human MDA-MB-231 cells at 5 to 20 umol/l pretreated for 48 hrs followed by replacement of fresh medium and measured after 15 days by crystal violet staining based assay. The format is functional, cell-based. The conditions noted are these: dose 5-20 µmol/L.
The subject of test [6] is MDA-MB-231. Nature of the test: Induction of apoptosis in human MDA-MB-231 cells assessed as increase in cleaved caspase-3 expression measured after 48 hrs by Western blot analysis. The class given is functional, cell-based. As to conditions: dose 5-20 µM, DDE = dose-dependent effect.
In test [7] the test system is MDA-MB-468. Nature of the test: Induction of apoptosis in human MDA-MB-468 cells assessed as increase in cleaved caspase-3 expression measured after 48 hrs by Western blot analysis. The class given is functional, cell-based. As to conditions: dose 5-20 µM, DDE = dose-dependent effect.
In test [8] the test system is MDA-MB-468. Nature of the test: Inhibition of autophagy in human MDA-MB-468 cells assessed as increase in LC3B-II expression measured after 48 hrs by immunofluorescence analysis. The class given is functional, cell-based. As to conditions: dose 5-20 µM.
In test [9] the test system is MDA-MB-231. Nature of the test: Inhibition of autophagy in human MDA-MB-231 cells assessed as increase in LC3B-II expression measured after 48 hrs by immunofluorescence analysis. The format is functional, cell-based. As to conditions: dose 5-20 µM.
Test [10] has as its target Serine-protein kinase ATM (Homo sapiens) (UniProt Q13315). Nature of the test: Activation of ATM phosphorylation in human MDA-MB-231 cells at 5 to 20 uM measured after 6 to 48 hrs by Western blot analysis. The format is cell-based. As to conditions: filed as activator, dose 5-20 µM, time 6-48 hrs. For orientation: In western blotting, separated proteins are transferred to a membrane and probed.

Test [11] concerns MDA-MB-468. Kind of test: Induction of DNA damage in human MDA-MB-468 cells assessed as increase in gamma-H2AX accumulation measured after 48 hrs by immunofluorescence analysis. The class given is functional, cell-based.
Test [12] has as its system MDA-MB-231. Nature of the test: Antitumor activity against human MDA-MB-231 cells xenografted in NOD/SCID mouse assessed as reduction in cell count at 5 to 15 mg/kg, ip administered at 3 days interval for 24 days and measured on day 25 by H and E staining based assay. As to conditions: dose 5-15 mg/kg, time 25.0 day. The class given is functional, organism-based. (In general: A xenograft is tissue or cells of one species grown in another, often human tumour cells in immunodeficient mice.)

Test [13] concerns MDA-MB-231. Kind of test: Induction of DNA damage in human MDA-MB-231 cells assessed as reduction in RAD51 expression measured after 6 to 48 hrs by Western blot analysis. The format is functional, cell-based. As to conditions: dose 5-20 µM, time 6-48 hrs, DDE = dose-dependent effect.
For test [14], the system named is MDA-MB-468. Kind of test: Induction of apoptosis in human MDA-MB-468 cells assessed as increase in Bim expression measured after 48 hrs by Western blot analysis. The class given is functional, cell-based. As to conditions: dose 5-20 µM, DDE = dose-dependent effect.
The test system of test [15] is HCT-116. Nature of the test: Antiproliferative activity against human HCT-116 cells assessed as cell growth inhibition measured after 48 hrs by MTT assay. The class given is functional, cell-based. As to conditions: HCT-116, 48 h.
In test [16] the test system is MDA-MB-468. Kind of test: Antiproliferative activity against human MDA-MB-468 cells assessed as reduction in Ki67 expression measured after 48 hrs by immunofluorescence analysis. The class given is functional, cell-based.
The subject of test [17] is MDA-MB-468. Kind of test: Cell cycle arrest in human MDA-MB-468 cells assessed as reduction in CDK1 expression measured after 48 hrs by Western blot analysis. The class given is functional, cell-based. As to conditions: dose 5-20 µM, DDE = dose-dependent effect.
The subject of test [18] is MDA-MB-468. Kind of test: Inhibition of autophagic flux in human MDA-MB-468 cells assessed as increase in cytoplasmic p62 expression measured after 48 hrs by Western blot analysis. The class given is functional, cell-based. As to conditions: dose 5-20 µM, DDE = dose-dependent effect.

The source made the active and inactive calls. No cut-off for these calls is given here.

Chain of Serine-protein kinase ATM (Homo sapiens) (Q13315 whole entry): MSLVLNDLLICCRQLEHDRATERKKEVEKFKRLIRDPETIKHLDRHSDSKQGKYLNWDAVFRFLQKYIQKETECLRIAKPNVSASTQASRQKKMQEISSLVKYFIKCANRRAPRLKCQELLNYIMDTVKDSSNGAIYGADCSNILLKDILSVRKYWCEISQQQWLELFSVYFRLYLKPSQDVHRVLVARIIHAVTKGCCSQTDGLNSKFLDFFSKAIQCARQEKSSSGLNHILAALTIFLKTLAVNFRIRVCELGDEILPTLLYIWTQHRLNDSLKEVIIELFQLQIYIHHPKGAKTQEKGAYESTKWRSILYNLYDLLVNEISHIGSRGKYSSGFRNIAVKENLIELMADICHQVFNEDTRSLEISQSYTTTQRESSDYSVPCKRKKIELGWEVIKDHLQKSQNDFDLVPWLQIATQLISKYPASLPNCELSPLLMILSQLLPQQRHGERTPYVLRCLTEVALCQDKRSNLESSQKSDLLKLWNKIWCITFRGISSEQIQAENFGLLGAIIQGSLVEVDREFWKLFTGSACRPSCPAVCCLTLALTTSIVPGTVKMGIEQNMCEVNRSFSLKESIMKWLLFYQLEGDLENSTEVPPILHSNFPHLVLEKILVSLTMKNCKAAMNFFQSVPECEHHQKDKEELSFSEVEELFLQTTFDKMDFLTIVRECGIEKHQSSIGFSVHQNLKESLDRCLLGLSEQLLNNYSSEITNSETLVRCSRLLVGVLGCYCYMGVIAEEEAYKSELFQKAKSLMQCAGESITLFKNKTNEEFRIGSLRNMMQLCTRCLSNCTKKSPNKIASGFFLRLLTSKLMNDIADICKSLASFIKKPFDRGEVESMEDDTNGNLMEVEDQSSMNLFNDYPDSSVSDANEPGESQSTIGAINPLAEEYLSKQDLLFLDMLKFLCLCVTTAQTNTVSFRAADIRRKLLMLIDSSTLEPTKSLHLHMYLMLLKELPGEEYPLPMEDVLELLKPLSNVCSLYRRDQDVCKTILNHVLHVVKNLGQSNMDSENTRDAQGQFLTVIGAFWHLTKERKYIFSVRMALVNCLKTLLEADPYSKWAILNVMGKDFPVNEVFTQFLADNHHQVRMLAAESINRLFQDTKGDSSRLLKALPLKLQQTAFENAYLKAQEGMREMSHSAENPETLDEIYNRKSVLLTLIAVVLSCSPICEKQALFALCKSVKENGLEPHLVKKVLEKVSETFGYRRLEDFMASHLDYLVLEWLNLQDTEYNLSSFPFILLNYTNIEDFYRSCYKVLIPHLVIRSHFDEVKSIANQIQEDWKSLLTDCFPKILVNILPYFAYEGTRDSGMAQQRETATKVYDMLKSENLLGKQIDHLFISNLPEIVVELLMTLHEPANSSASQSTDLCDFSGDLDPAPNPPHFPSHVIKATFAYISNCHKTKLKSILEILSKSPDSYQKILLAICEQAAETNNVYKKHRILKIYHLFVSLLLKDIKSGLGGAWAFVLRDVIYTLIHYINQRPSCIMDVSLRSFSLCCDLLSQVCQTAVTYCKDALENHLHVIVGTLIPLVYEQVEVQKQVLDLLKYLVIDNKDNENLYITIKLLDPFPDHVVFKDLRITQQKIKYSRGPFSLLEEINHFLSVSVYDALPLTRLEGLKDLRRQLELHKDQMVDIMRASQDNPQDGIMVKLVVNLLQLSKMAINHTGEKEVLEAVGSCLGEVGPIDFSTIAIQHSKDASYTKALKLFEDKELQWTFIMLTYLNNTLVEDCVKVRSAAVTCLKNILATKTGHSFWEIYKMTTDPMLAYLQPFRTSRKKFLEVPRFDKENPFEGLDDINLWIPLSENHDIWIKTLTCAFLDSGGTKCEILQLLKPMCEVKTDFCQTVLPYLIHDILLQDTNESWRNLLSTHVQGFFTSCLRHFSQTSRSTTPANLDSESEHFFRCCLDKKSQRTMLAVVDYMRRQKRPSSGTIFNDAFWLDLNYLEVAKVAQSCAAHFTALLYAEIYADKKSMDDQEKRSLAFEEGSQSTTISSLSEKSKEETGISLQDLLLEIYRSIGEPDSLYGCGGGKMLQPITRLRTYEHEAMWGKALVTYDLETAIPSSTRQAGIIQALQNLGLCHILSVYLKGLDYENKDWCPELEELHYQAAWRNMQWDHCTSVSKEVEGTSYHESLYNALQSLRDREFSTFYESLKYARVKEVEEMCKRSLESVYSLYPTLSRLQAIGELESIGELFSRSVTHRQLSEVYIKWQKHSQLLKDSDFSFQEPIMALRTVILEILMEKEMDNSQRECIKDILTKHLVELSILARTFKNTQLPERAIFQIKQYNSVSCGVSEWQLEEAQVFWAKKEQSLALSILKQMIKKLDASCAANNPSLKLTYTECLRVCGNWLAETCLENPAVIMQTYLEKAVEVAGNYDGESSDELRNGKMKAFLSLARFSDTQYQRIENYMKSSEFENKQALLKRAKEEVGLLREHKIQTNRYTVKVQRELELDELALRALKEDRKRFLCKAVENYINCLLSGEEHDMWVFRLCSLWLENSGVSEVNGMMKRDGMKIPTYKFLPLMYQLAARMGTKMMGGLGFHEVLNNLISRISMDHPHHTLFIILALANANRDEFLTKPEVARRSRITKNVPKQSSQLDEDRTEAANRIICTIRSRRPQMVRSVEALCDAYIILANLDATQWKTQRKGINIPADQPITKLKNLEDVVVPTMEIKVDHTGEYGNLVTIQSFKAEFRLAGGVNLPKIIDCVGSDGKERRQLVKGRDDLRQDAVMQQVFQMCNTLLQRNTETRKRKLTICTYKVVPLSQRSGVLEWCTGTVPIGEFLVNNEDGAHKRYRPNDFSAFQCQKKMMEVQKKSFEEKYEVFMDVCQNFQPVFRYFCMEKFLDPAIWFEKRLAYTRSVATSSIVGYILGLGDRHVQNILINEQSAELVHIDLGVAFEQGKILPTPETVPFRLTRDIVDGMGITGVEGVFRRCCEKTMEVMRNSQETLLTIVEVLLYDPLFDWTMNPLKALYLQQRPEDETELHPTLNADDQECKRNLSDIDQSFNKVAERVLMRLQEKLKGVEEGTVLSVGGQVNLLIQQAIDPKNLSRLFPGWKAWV

Turning to `O=C(NC1CCCCC1)c1[nH]cnc1-c1nc2ccccc2[nH]1`, the outcome in test [1], in test [2], in test [10], in [11], in test [12] and in [16] was Active. Also, the inhibition result in test [3] and in test [18] was “Dde” in each case. Further, the Activity was 50% in [4]; “Dde” in test [6]; “Dde” in test [7]; “Dde” in test [13]; “Dde” in [14]; “Dde” in test [17]. In addition, the inhibition entry in test [5], in test [8] and in [9] was “Active” throughout. For the same compound, the IC50 in [15] amounted to 35.5 µM.

Usually IC50 stands for the concentration at which inhibition is half-maximal.
